Patent US20120115869A1, “TETRAZOLE DERIVATIVES” (MERCK SERONO S.A., priority 2009, published 2012)

Experiments:
CRTH2 (DP2) = target: T1, CRTH2 (DP2) (Homo sapiens, UniProt Q9Y5Y4); assay: Radioligand binding Scintillation Proximity Assay ([3H]PGD2, hCRTH2-CHO cell membranes); conditions: 1.5 nM [3H]PGD2, hCRTH2-CHO cell membranes, SPA
T1 construct: host or cells: CHO cells
T1 sequence (Q9Y5Y4 1-395): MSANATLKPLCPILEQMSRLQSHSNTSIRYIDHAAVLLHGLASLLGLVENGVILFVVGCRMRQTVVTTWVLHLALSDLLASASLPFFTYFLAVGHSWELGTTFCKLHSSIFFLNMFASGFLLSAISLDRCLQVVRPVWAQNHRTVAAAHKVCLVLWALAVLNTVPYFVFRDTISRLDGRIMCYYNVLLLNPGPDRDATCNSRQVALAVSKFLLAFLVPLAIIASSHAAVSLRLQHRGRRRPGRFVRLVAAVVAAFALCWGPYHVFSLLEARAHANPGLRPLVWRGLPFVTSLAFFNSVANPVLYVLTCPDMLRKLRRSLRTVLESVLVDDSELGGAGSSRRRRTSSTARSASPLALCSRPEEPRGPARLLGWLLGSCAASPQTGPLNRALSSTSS
Outline: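 Membranes from CHO cells stably expressing human CRTH2, made by nitrogen cavitation and differential centrifugation. Compounds competed with [3H]PGD2 at 1% DMSO for 90 min with agitation at room temperature. Non-specific binding taken with 10 μM PGD2.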

CRTH2 [1] = target: T2, CRTH2 (Homo sapiens, UniProt Q9Y5Y4); assay: [35S]GTPγS binding assay on CHO-CRTH2 cell membranes; type: biochemical; conditions: without addition of PGD2; 100% of Emax being the activity measured by the addition of 1 μM of PGD2
T2 construct: expressed in transfected cells; host or cells: CHO cells
T2 sequence (Q9Y5Y4 1-395): T1 sequence (Q9Y5Y4 1-395)
Description: Adherent CHO cells expressing hCRTH2 (Euroscreen, Belgium) were cultured in 225 cm^2 cell culture flasks (Corning, USA) in 30 ml of medium. After two rinses of phosphate buffered saline (PBS), cells were harvested in 10 ml of PBS containing 1 mM EDTA, centrifuged at 500×g for 5 min at 4° C. and frozen at −80° C. The pellet was re-suspended in 50 mM Tris-HCl, pH 7.4, 2 mM EDTA, 250 mM Sucrose, containing protease inhibitor cocktail tablets, (Complete EDTA-free, Roche, Germany) and incubated 30 min at 4° C. Cells were disrupted by nitrogen cavitation (Parr Instruments, USA) at 4° C. (800 p.s.i. for 30 min), and centrifuged at 500×g for 10 min at 4° C. Pellet containing nuclei and cellular debris was discarded and supernatant was centrifuged 60 min at 4° C. at 45000×g. Membrane pellet was re-suspended in storage buffer (10 mM HEPES/KOH pH 7.4, 1 mM EDTA, 250 mM sucrose, protease inhibitor cocktail tablets) using Dounce homogenization and frozen in liquid nitrogen, and stored at 80° C.
The [^35S]GTPγS assay measures the increase in guanine nucleotide exchange at G-proteins in cell membranes, resulting from agonist (PGD2) binding to CRTH2. […] Briefly, Compounds of Formula (I) are incubated in 96-well scintillating white polystyrene plates (Perkin Elmer, USA) in a final volume of 200 μl containing 20 mM HEPES/KOH pH 7.4, 3 mM MgCl2, 10 μg/ml Saponin, 5 μM GDP, 75 mM NaCl and 2% of dimethylsulphoxide (DMSO). […] After 60 min incubation at 30° C., reaction is stopped by centrifugation at 700×g, at 4° C. for 10 minutes and supernatant is removed. […] For IC50 determination, increasing concentrations of compounds are incubated in presence of a fixed concentration of PGD2 (EC80). For EC50 measurements, compounds are incubated without addition of PGD2. Basal [^35S]GTPγS activity is determined without addition of any ligands or compounds. 100% [^35S]GTPγS activity is measured by the addition of 1 μM of PGD2.

[2] = test system: eosinophils (PGD2-induced cell shape change); assay: PGD2-induced eosinophil cell shape assay in human whole blood; type: cell-based; conditions: 10 nM PGD2 final
Description: The Compounds of Formula (I) were diluted in dimethylsulphoxide so that the total volume of dimethylsulfoxide was kept constant at 2% dimethylsulphoxide (Me2SO). Serial dilutions of 200 μM to 0.09 μM were prepared. Samples of 90 μl of human blood from healthy volunteers (Centre de Transfusion Sanguine de Genéve) were pre-incubated in polypropylene Falcon tubes (BD 352063) for 20 minutes in a water bath at 37° C. with 10 μl of diluted compounds. For CRTH2 activation, 100 μl PGD2 (Cayman 12010) at 20 nM was added (10 nM final) to each tube and cells were maintained at 37° C. For negative control cells were treated with PBS. After 10 minutes, cell activation was stopped with 120 μl Formaldehyde 10% (4% final, Fluka 41650) and cells were rested for 10 minutes at room temperature. Fixed cells were transferred into polypropylene tubes and then treated for 1 hour in a water bath at 37° C. with 2 ml of Triton-Surfact-Amps X-100 (Pierce 28314) at 0.166% (0.13% Triton final). After several washes with PBS (red cells lysed progressively during washes, two washes are necessary), cells were analyzed by flow cytometry on a FACSCalibur. In one embodiment, the compounds of Formula (I) of the present invention are capable of blocking the cell shape change of eosinophils induced by PGD2 in Whole Blood.

[3] = In vivo pharmacokinetic evaluation in mouse; conditions: mice
Description: In order to study the pharmacokinetic (PK) profile of test compounds in vivo, Sprague Dawley male rats or C57BL/6 female mice were dosed intravenously or after oral gavage. For both species, test compounds were dosed in solution at 1 mg/kg for i.v. route (10% ethanol, 10% N,N-dimethylacetamide, 30% propylene glycol, 50% water, v/v) and in suspension at 5 mg/kg (0.5% carboxymethylcellulose suspension, containing 0.25% Tween 20 in water) for oral gavage. PK profile in rat was obtained from 3 animals per dosing route and mouse PK profile was determined from 3 animals for each time points. The volume of administration was 2 mL/kg for i.v. dosing in both species and either 5 mL/kg (rat) or 10 mL/kg (mouse) for oral gavage. Blood samples (100 μL/time point) were collected at 0.083 (5 min), 0.25, 0.5, 1, 4, 7 and 24 hours post-dose for i.v. dosing, and at 0.5, 1, 4, 7 and 24 h for oral dosing, into heparin-Li+ containing tubes. For rats, all blood samples were collected trough a catheter in the carotid artery (placed in the artery the day before the experiment), under light isoflurane anesthesia, and stored on ice until centrifugation and plasma isolation. For mouse, blood samples were collected from intracardiac puncture at sacrifice at each time point and processed as described above for the rat. Plasma samples were stored frozen until analysis (−20° C. to −70° C.). For bioanalysis, samples were processed by protein precipitation (acetonitrile, formic acid 0.1%, addition of 3 volumes) after addition of one internal standard and analysed using a sensitive and selective LC/MS/MS method. An aliquot of the resulting supernatant was subject to LC/MS/MS analysis using a reverse phase column (Waters Xterra, C8, (3.5 μm particle size, 2.1×50 mm) and a short gradient (1 min) from (Solvent A) 85% water, 15% acetonitrile and 0.1% formic acid to (Solvent B) 90% acetonitrile, 10% water and 0.1% formic acid followed by isocratic conditions of Solvent B for 3.5 min at 0.4 mL/min. Column effluent was monitored using a Sciex API 4000 triple quadrupole mass spectrometer with a Turbo V electrospray ion source. Unknown concentrations of test compounds were determined using a calibration curve ranging from 1 to 3000 ng/mL.

CRTH2 [4] = target: T2, CRTH2; assay: Cellular Dielectric Spectroscopy in CHO-CRTH2 cells; type: cell-based; conditions: fixed concentration of PGD2 (EC80), read-out: IC50(μM) (CDS, antagonist)
Description: Cellular Dielectric Spectroscopy (CDS) is a label-free technology based on the measurement of complex impedance changes (delta Z or dZ). Impedance (Z) is related to the ratio of voltage to current as described by Ohm's law (Z=V/I). In order to measure the changes in impedance that occur in response to receptor stimulation, mammalian cells are seeded onto a custom 96-well microtiter plate that contains electrodes at the bottom of each well Key contributors to the impedance measurements are changes in cell-substrate adherence, changes in cell shape and volume, and changes in cell-cell interactions. These factors individually or collectively affect the flow of current, influencing the magnitude and characteristics of the signal measured. G-protein coupled receptors ligand-induced activity can be measured using this technology and specific G protein coupling can be identified. Activities of reference agonist and antagonist molecules of CRTH2 have been measured using this assay and similar results were obtained compared to different functional assays.
CHO—CRTH2 cells are cultured in HAM's F12 (Lonza, Switzerland) supplemented with 10% foetal calf serum (PAA, Australia) and 400 μg/ml Geneticin. 100000 cells/well are seeded in standard 96 W Microplates (MDS Analytical Technologies) and incubated at 37° C. in 5% CO2 for 24 hours. Cells are washed twice with 135 μl of cell key buffer (Hank's Balanced Salt Solution 1× (HBSS) (Invitrogen) supplemented with 10 mM HEPES pH 7.4 in presence of 1% DMSO). […] Results are expressed as the amplitude between the highest and the lowest signal produced (max-min). Basal and maximum activities are measured, respectively in absence or presence of PGD2 (EC80).

Row | SMILES | IC50 (CRTH2 (DP2)) [nM] | Emax (CRTH2 [1]) [%] | IC50 [2] [µM] | further results
1 | CCC(=O)N(Cc1ccc2c(c1)OCCO2)c1cc(-c2nnn[nH]2)ccc1F [Example 9, N-(2,3-dihydro-1,4-benzodioxin-6-ylmethyl)-N-[2-fluoro-5-(1H-tetrazol-5-yl)phenyl]propanamide] | 15 |  | 1.17 | 
2 | CCC(=O)N(Cc1ccc(OC(F)(F)F)cc1)c1cc(Cl)cc(-c2nnn[nH]2)c1 [Example 57, N-[3-chloro-5-(1H-tetrazol-5-yl)phenyl]-N-[4-(trifluoromethoxy)benzyl]propanamide] | 15 |  | 0.233 | melting point: 144 °C
3 | CCC(=O)N(Cc1ccc(C(F)(F)F)cc1)c1cc(F)cc(-c2nnn[nH]2)c1 [Example 58, N-[3-fluoro-5-(1H-tetrazol-5-yl)phenyl]-N-[4-(trifluoromethyl)benzyl]propanamide] | 7.1 | -8.1 | 0.102 | Clearance iv (1 mg/Kg) ([3]; i.v. 1 mg/Kg): 5 mL/min/kg; AUC po (5 mg/Kg) ([3]; oral gavage 5 mg/Kg): 11212 ng·h/mL; Oral bioavailability ([3]; po 5 mg/Kg vs iv 1 mg/Kg): 76%
4 | CCCCC(=O)N(Cc1ccc2c(c1)OCCO2)c1cccc(-c2nnn[nH]2)c1 [Example 5, N-(2,3-dihydro-1,4-benzodioxin-6-ylmethyl)-N-[3-(1H-tetrazol-5-yl)phenyl]pentanamide] | 8.8 |  | 0.536 | IC50 (CRTH2 [4]): 0.076 µM

More lines, main results first:

Row | IC50 (CRTH2 (DP2)) [nM] | Emax (CRTH2 [1]) [%] | IC50 [2] [µM] | SMILES | further results
5 | 4.2 | -9.5 | 0.245 | CCCCC(=O)N(Cc1ccc(OC)cc1)c1cc(Cl)cc(-c2nnn[nH]2)c1 [Example 46, N-[3-chloro-5-(1H-tetrazol-5-yl)phenyl]-N-(4-methoxybenzyl)pentanamide] | 
6 | 53 |  | 0.914 | CCCCC(=O)N(Cc1cccc(OC)c1)c1cccc(-c2nnn[nH]2)c1 [Example 13, N-(3-methoxybenzyl)-N-[3-(1H-tetrazol-5-yl)phenyl]pentanamide] | 
7 | 2.3 | -14.9 | 0.039 | CCCCC(=O)N(Cc1ccc2c(c1)OCCO2)c1cc(F)cc(-c2nnn[nH]2)c1 [Example 11, N-(2,3-dihydro-1,4-benzodioxin-6-ylmethyl)-N-[3-fluoro-5-(1H-tetrazol-5-yl)phenyl]pentanamide] | 
8 | 24 | -13 | 0.082 | CCC(=O)N(Cc1ccc(OC(F)(F)F)c(Cl)c1)c1cc(F)cc(-c2nnn[nH]2)c1 [Example 56, N-[3-chloro-4-(trifluoromethoxy)benzyl]-N-[3-fluoro-5-(1H-tetrazol-5-yl)phenyl]propanamide] | clearance ([3]; female, C57BL/6, mouse, plasma, iv, i.v. 1 mg/Kg): 15 mL/min/kg; AUC ([3]; female, C57BL/6, mouse, plasma, oral gavage 5 mg/Kg): 1910 ng·h/mL; bioavailability ([3]; female, C57BL/6, mouse, plasma, po 5 mg/Kg vs iv 1 mg/Kg): 36%
